# Where a name gives a salt, the structure may show the parent alone.
# Assays:
# asthmatic rat = experiment: certain biological tests, amorphous versus crystalline material; format: in vivo
# Text: Representative results comparing the two forms of the compound are shown in the accompanying Table IV (where doses are in mg/kg, p.o.).
# [1] = test system: duration of dyspnoea in asthmatic rats (egg albumin challenge); experiment: Asthmatic Rat Assay; format: in vivo; conditions: for ED50 (Asthmatic Rat Assay): p.o.
# [2] = NMR study of equilibration of conformational isomers in solution; format: physicochemical; conditions: upon dissolution at room temperature (DMF-d7)
# Experimental: In particular, the methyl group of the acetyl unit appears as four sharp singlets, of approximately equal intensity, at 1.89, 1.91, 1.99 and 2.28 parts per million (ppm).
# In another experiment, a sample of the crystalline compound was dissolved in DMF-d7, pre-cooled to -50° C., and the NMR spectrum taken quickly at -50° C. […] As the sample was warmed, these two signals coalesced to a singlet at about 30° C. (1.91 ppm); at about 80° C., a second singlet appeared (2.04 ppm), and at 170° C., these two singlets began to coalesce.
# In another NMR study of the compound, five samples were dissolved in DMF-d7 at 25° C., and then stored at -78° C., after being held for 0, 5, 15, 30 and 60 minutes at 25° C.
# As a result of the x-ray and NMR studies, it is concluded that there is a single conformational isomer of compound XVIII present in the crystalline form, and that this isomer equilibrated, upon dissolution at room temperature, over a period of approximately one hour, to a mixture of at least four observable conformational isomers which may possibly be represented as follows: [drawing 50]
# [3] = test system: LTB4 formation in rat peritoneal PMN leukocytes; experiment: Rat Peritoneal Polymorphonuclear (PMN) Leukocyte Assay (inhibition of LTB4 formation); format: cell-based; conditions: for IC50: Leukocyte, rat peritoneal PMN, 10 μM A-23187, 2 min preincubation at 37° C.
# Experimental: Rats under ether anesthesia are injected (i.p.) with 8 ml of a suspension of sodium cascinate (6 grams in ca. 50 ml water). […] The rats are sacrificed (CO2) and the cells from the peritoneal cavity are recovered by lavage with 20 ml of buffer (Eagles MEM containing 30 mM HEPES adjusted to pH 7.4 with NaOH). The cells are pelleted (350×g, 5 min.), resuspended in buffer with vigorous shaking, filtered through lens paper, recentrifuged and finally suspended in buffer at a concentration of 10 cells/ml. A 500 μl aliquot of PMN suspension and test compound are preincubated for 2 minutes at 37° C., followed by the addition of 10 μM A-23187. The suspension is stirred for an additional 4 minutes then bioassayed for LTB4 content by adding an aliquot to a second 500 μl portion of the PMN at 37° C. The LTB4 produced in the first incubation causes aggregation of the second PMN, which is measured as a change in light transmission. […] The percentage inhibition of LTB4 formation is calculated from the ration of transmission change in the sample to the transmission change in the compound-free control.
# [4] = test system: Platelet activating factor (PAF)-induced hyperalgesia in the rat paw; experiment: PAF-Induced Hyperalgesia Assay; format: in vivo, rat (female Sprague-Dawley)
# Experimental: Female Sprague-Dawley rats, 35-40 g were fasted overnight. Platelet activating factor, PAF, (L-lecithin B-acetyl O-alkyl) 1 μg/0.1 ml was given by subplantar injection in the rat paw. The compounds to be evaluated were homogenized in Aqueous Vehicle (0.9% benzyl alcohol, 0.5% Tween 80 and 0.4% methylcellulose) and administered orally in a volume of 0.1 ml, 30 minutes prior to PAF.
# Animals were tested 1, 2, 3 and 4 hours after PAF administration. The vocalization threshold, defined as the pressure (mmHg) needed to evoke a squeak response, was recorded for both the injected and contralateral paw. No animal was subjected to pressure greater than 60 mmHg. Hyperalgesia is defined as a decrease in vocalization threshold as compared to a normal paw. Percent inhibition of hyperalgesia was calculated as the proportion of animals with vocalization thresholds greater than 200% of controls.
# [5] = 0.5 mg/kg p.o., vehicle 0.4% Tween 80/0.5% Methocel
# [6] = 1.5 mg/kg p.o., vehicle 0.4% Tween 80/0.5% Methocel
# [7] = 2 mg/kg p.o., vehicle 0.4% Tween 80/0.5% Methocel
# [8] = vehicle 0.4% Tween 80/0.5% Methocel
# [9] = Rattus norvegicus, po, 5 mg/kg p.o., Table III, read-out: Asth. Rat % Inhibition
# [10] = Rattus norvegicus, po, 1.5 mg/kg p.o., Table III, read-out: Asth. Rat % Inhibition
structure (smiles),measurement,setting,value
"CC(=O)OC(C)OC(=O)N1c2ccccc2Sc2cc(O)c3ccccc3c21 (centres unmarked) [Compound XVIII, Amorphous (4 Conformers), 5-hydroxy-12-(1-acetoxyethoxycarbonyl)-12H-benzo[a]phenothiazine]",biological activity over the crystalline material,asthmatic rat,advantageous biological activity over the crystalline material
same,% Inhibition (Asthmatic Rat Assay),[1]; [5],48%
same,% Inhibition (Asthmatic Rat Assay),"[1]; 0.5 mg/kg p.o., vehicle 1% Methocel",36%
same,% Inhibition (Asthmatic Rat Assay),[1]; [6],52%
same,% Inhibition (Asthmatic Rat Assay),"[1]; 1.5 mg/kg p.o., vehicle 1% Methocel",59%
same,% Inhibition (Asthmatic Rat Assay),[1]; [7],57%
same,ED50 (Asthmatic Rat Assay),[1]; [8],1.0 mg/kg
same,ED50 (Asthmatic Rat Assay),[1]; vehicle 1% Methocel,1.0 mg/kg
"CC(=O)OC(C)OC(=O)N1c2ccccc2Sc2cc(O)c3ccccc3c21 (centres unmarked) [Compound XVIII, Crystalline (1 Conformer)] [5-hydroxy-12-(1-acetoxyethoxycarbonyl)-12H-benzo[a]phenothiazine]",period of equilibration of the single conformational isomer to a mixture of at least four conformational isomers,[2],approximately one hour
same,% Inhibition (Asthmatic Rat Assay),[1]; [5],19%
same,% Inhibition (Asthmatic Rat Assay),[1]; [6],49%
same,% Inhibition (Asthmatic Rat Assay),[1]; [7],61%
same,% Inhibition (Asthmatic Rat Assay),"[1]; 2 mg/kg p.o., vehicle 1% Methocel",28%
same,% Inhibition (Asthmatic Rat Assay),"[1]; 5 mg/kg p.o., vehicle 0.4% Tween 80/0.5% Methocel",81%
same,ED50 (Asthmatic Rat Assay),[1]; [8],1.5 mg/kg
"CC(=O)Oc1cc2c(c3ccccc13)N(C(C)=O)c1ccccc1S2 [aromatic, Ac, Ac, S, 5-Acetoxy-12-acetyl-12H-benzo[a]phenothiazine]",inhibition in vivo at 5 mg/kg,[1]; [9],47%
"CC(=O)N1c2ccccc2Sc2cc(O)c3ccccc3c21 [aromatic, Ac, H, S, 12-acetyl-5-hydroxy-12H-benzo[a]phenothiazine]",IC50,[3],1000 to 5000 µg/mL
"COc1cc2c(c3ccccc13)N(C(C)=O)c1ccccc1S2 [aromatic, Ac, Me, S, 12-Acetyl-5-methoxy-12H-benzo[a]phenothiazine]",IC50,[3],5000 µg/mL
"CC(=O)Oc1cc2c(c3ccccc13)Nc1ccccc1O2 [aromatic, H, Ac, O, 5-Acetoxy-12H-benzo[a]phenoxazine]",inhibition in vivo at 5 mg/kg,[1]; [9],44%
"CC(=O)Oc1cc2c(c3ccccc13)Nc1ccccc1S2 [aromatic, H, Ac, S, 5-acetoxy-12H-benzo[a]phenothiazine]",ED50,"[4]; Rattus norvegicus, Platelet, po",0.145 mg/kg
same,ED50,"[1]; Rattus norvegicus, po, Table III, read-out: Asth. Rat ED50",4 mg/kg
same,IC50,[3],25 to 50 µg/mL
"CC(=O)Oc1cc2c(c3ccccc13)Nc1ccccc1S2(=O)=O [aromatic, H, Ac, SO2, 5-Acetoxy-12H-benzo[a]phenothiazine-7,7-dioxide]",inhibition in vivo at 5 mg/kg,[1]; [9],42%
"CC(C)(C)C(=O)Oc1cc2c(c3ccccc13)Nc1ccccc1S2 [aromatic, H, COC(CH3)3, S, 5-Trimethylacetoxy-12H-benzo[a]phenothiazine]",inhibition in vivo at 5 mg/kg,[1]; [9],54%
"NCC(=O)Oc1cc2c(c3ccccc13)Nc1ccccc1S2 [aromatic, H, COCH2 NH2 .HCl, S, 5-aminoacetoxy-12H-benzo[a]phenothiazine-hydrochloride salt]",inhibition in vivo at 1.5 mg/kg,[1]; [10],21%
same,inhibition in vivo at 3 mg/kg,"[1]; Rattus norvegicus, po, 3 mg/kg p.o., Table III, read-out: Asth. Rat % Inhibition",44%
"O=C(Oc1cc2c(c3ccccc13)Nc1ccccc1S2)c1ccccc1 [aromatic, H, COPh, S, 5-Benzoyloxy-12H-benzo[a]phenothiazine]",inhibition in vivo at 5 mg/kg,[1]; [9],18%
"Oc1cc2c(c3ccccc13)Nc1ccccc1S2 [aromatic, H, H, S, 5-hydroxy-12H-benzo[a]phenothiazine]",inhibition in vivo at 1.5 mg/kg,[1]; [10],54%
same,IC50,[3],20 to 100 µg/mL
"O=S1(=O)c2ccccc2Nc2c1cc(O)c1ccccc21 [aromatic, H, H, SO2, 5-Hydroxy-12H-benzo[a]phenothiazine-7,7-dioxide]",inhibition in vivo at 5 mg/kg,[1]; [9],67%
"CCOP(=O)(OCC)Oc1cc2c(c3ccccc13)Nc1ccccc1S2 [aromatic, H, PO(OEt)2, S, Diethyl 12H-benzo[a]phenothiazin-5-yl phosphate]",PMN IC50,[3],200 to 1000 µg/mL
"CC(=O)Oc1cc2c(c3ccccc13)N(C)c1ccccc1S2 [aromatic, Me, Ac, S, 5-acetoxy-12-methyl-12H-benzo[a]phenothiazine]",PAF Induced Hyperalgesia % Inhibition,[4]; 1 mg/kg p.o.,30-60%
same,IC50,[3],50 µg/mL
"COc1cc2c(c3ccccc13)N(C)c1ccccc1S2 [aromatic, Me, Me, S, 5-methoxy-12-methyl-12H-benzo[a]phenothiazine]",PAF Induced Hyperalgesia % Inhibition,[4]; 1 mg/kg p.o.,40%
same,PAF Induced Hyperalgesia % Inhibition,[4]; 3 mg/kg p.o.,80%
same,IC50,[3],5000 µg/mL
"CC(=O)OC(C)OC(=O)N1c2ccccc2Sc2cc(O)c3ccccc3c21 (centres unmarked) [aromatic, drawing 52, H, S, 5-hydroxy-12-(1-acetoxyethoxycarbonyl)-12H-benzo[a]phenothiazine]",PAF Induced Hyperalgesia % Inhibition,[4]; 3 mg/kg p.o.,60%
same,inhibition in vivo at 1.5 mg/kg,[1]; [10],49%
